Laboratory results reported in paper PMC7865145, “Identification of existing pharmaceuticals and herbal medicines as inhibitors of SARS-CoV-2 infection” (Proceedings of the National Academy of Sciences of the …, 2021).
Read-outs that look alike come from different tables or passages of the source.

Experiments:
SARS-CoV-2 [1] = experiment: Quantification of SARS-CoV-2 via antibody staining (viral NP protein) in Vero E6 cells; assay type: cell-based; settings: for IC50: viral titer by antinucleocapsid antibody
[2] = biological target: Papain-like protease (nsp3) of SARS-CoV-2 (Severe acute respiratory syndrome coronavirus 2, UniProt P0DTD1); experiment: biochemical; assay type: biochemical; settings: for inhibition at 100 µM: read-out: Inhibition % at 100 uM of compounds, Papain-like protease (nsp3)
[3] = test system: SARS-CoV-2 (hCoV-19/Taiwan/4/2020); experiment: microbe, parasite or virus in culture; assay type: cell-based
[4] = Cytotoxicity study of compounds with Vero E6 cells (CCK-8); settings: African green monkey, Vero E6 cells, CC50 (μM)
Vero E6 cells [5] = experiment: as above
in vitro = settings: African green monkey, CC50 (μM); for CC50: Vero E6 cells
SARS-CoV-2 [6] = experiment: In vivo anti-SARS-CoV-2 assay, lung virus load; settings: female golden Syrian hamsters, intranasal infection day 0, oral twice a day 30 mg/kg/d for 3 d, n = 5
Vero E6 cells [7] = test system: Vero E6 cells
[8] = hamster, in vivo
[9] = biological target: nsp7-nsp8-nsp12 complex (Rdrp) of SARS-CoV-2 (Severe acute respiratory syndrome coronavirus 2, UniProt P0DTD1); experiment: Activity assay for SARS-CoV-2 RNA-dependent RNA polymerase; assay type: biochemical
[10] = Severe acute respiratory syndrome coronavirus 2, Vero C1008, 100 PFU of SARS-CoV-2 (multiplicity of infection 0.025) in Vero E6 cells
[11] = 100 uM, FRET-based enzymatic assay, 3 independent experiments, N.I. = no inhibition
[12] = Severe acute respiratory syndrome coronavirus 2, Vero C1008, 72 h, read-out: CPE (μM) D3
[13] = 100 PFU of SARS-CoV-2 (multiplicity of infection 0.025) in Vero E6 cells
[14] = Severe acute respiratory syndrome coronavirus 2, Vero C1008, minimal dose that showed antiinfective effect after virus challenge, incubation 72 h (D3), Vero E6, read-out: CPE (μM) D3
[15] = Severe acute respiratory syndrome coronavirus 2, Vero C1008, minimal dose that showed antiinfective effect after virus challenge, incubation 120 h (D5), Vero E6, N.I. = no inhibition, dash = cytotoxicity was observed, read-out: CPE (μM) D5
[16] = Severe acute respiratory syndrome coronavirus 2, Vero C1008, 120 h, […], N.I. = no inhibition, dash = cytotoxicity was observed, read-out: CPE (μM) D5

Row | Structure (SMILES) | IC50 (SARS-CoV-2 [1]; [10]) [µM] | Inhibition % at 100 uM of compounds, Papain-like protease (nsp3) [2, 11] | minimal effective concentration [3, 12] [µM] | CC50 at 24 h [4] [µM] | CC50 (in vitro) [µM] | IC50 (SARS-CoV-2 [1]; [13]) [µM] | lung virus load vs control (drugs) (SARS-CoV-2 [6]) | minimal effective concentration [3, 14] [µM] | minimal effective concentration [3, 15] [µM] | also measured
1 | CC(C)(C)c1cc(C(C)(C)C)c(NC(=O)c2c[nH]c3ccccc3c2=O)cc1O [Ivacaftor 9, Ivacaftor] | 3.7 | N.I. | 5 | 12.9 | – | – | – | – | – | CPE (μM) D5 ([3]; […], N.I. = no inhibition, dash = cytotoxicity was observed): N.I.
2 | CC[C@H](C)[C@H]1O[C@]2(CC[C@@H]1C)C[C@@H]1C[C@@H](C/C=C(\C)[C@@H](O[C@H]3C[C@H](OC)[C@@H](O[C@H]4C[C@H](OC)[C@@H](O)[C@H](C)O4)[C@H](C)O3)[C@@H](C)/C=C/C=C3\CO[C@@H]4[C@H](O)C(C)=C[C@@H](C(=O)O1)[C@]34O)O2 [Ivermectin 6, Ivermectin] | 4.1 | N.I. | 2.5 | – | 13.2 | – | – | – | – | cytotoxicity in the cell-based assay (Vero E6 cells [5]; Vero E6): high cytotoxicity
3 | OC(c1cc(C(F)(F)F)nc2c(C(F)(F)F)cccc12)C1CCCCN1 (stereo not shown) [Mefloquine 8, Mefloquine] | 3.24 | N.I. | – | – | – | 3.2 | significantly reduced viral load | 5 | 10 | –
4 | CC[C@@]1([C@@H]2O[C@@H]([C@H]3O[C@@](O)(CO)[C@H](C)C[C@@H]3C)C[C@@H]2C)CC[C@H]([C@]2(C)CC[C@]3(C[C@H](O)[C@@H](C)[C@@H]([C@@H](C)[C@@H](OC)[C@H](C)C(=O)O)O3)O2)O1 [Monensin 14, Monensin] | 6.38 | N.I. | 0.117 | – | 6.66 | 6.4 | – | – | – | selectivity index (antiviral effect vs cytotoxicity) (SARS-CoV-2 [1]; Vero E6, CC50 vs IC50): no selectivity; minimal effective concentration [3, 16]: 2.5 µM; CC50 (Vero E6 cells [5]; Vero E6 cells): 6.6 µM
5 | CO/N=C1\C[C@]2(C[C@@H]3C[C@@H](C/C=C(\C)C[C@@H](C)/C=C/C=C4\CO[C@@H]5[C@H](O)C(C)=C[C@@H](C(=O)O3)[C@]45O)O2)O[C@H](/C(C)=C/C(C)C)[C@H]1C [Moxidectin 7, Moxidectin] | 3.17 | N.I. | – | – | – | 3.1 | – | 5 | 10 | cytotoxicity in the cell-based assay (Vero E6 cells [7]): high cytotoxicity; CC50 (Vero E6 cells [7]; African green monkey, 24 h): 6.9 µM; CC50 at 24 h (in vitro): 6.88 µM
6 | Cc1c(O)cccc1C(=O)N[C@@H](CSc1ccccc1)[C@H](O)CN1C[C@H]2CCCC[C@H]2C[C@H]1C(=O)NC(C)(C)C [Nelfinavir 1, Nelfinavir] | 3.3 | – | – | 12.3 | – | – | good antiviral effects | 5 | 10 | fold higher anti-SARS-CoV-2 activity than boceprevir in the cell-based assay (SARS-CoV-2 [1]; Vero E6): 15 fold; inhibition at 100 µM [2, 11]: 3.5%
7 | OC1(c2ccc(Cl)c(C(F)(F)F)c2)CCN(CCCC(c2ccc(F)cc2)c2ccc(F)cc2)CC1 [Penfluridol 11, Penfluridol] | 2.41 | N.I. | – | 12.9 | – | 2.4 | – | 5 | 10 | –
8 | CC[C@@H](C(=O)[C@@H](C)[C@@H](O)[C@H](C)[C@@H]1O[C@@H]([C@@H](CC)C(=O)O)CC[C@@H]1C)[C@H]1O[C@]2(C=C[C@@H](O)[C@]3(CC[C@@](C)([C@H]4CC[C@](O)(CC)[C@H](C)O4)O3)O2)[C@H](C)C[C@@H]1C [Salinomycin 13, Salinomycin] | 0.000479 | – | 0.039 | – | 13.1 | 0.00048 | no significant antiinfective effect | – | – | body-weight change after 3-d treatment [8]: higher weight loss than the control group; selectivity ratio (SARS-CoV-2 [1]; African green monkey, Vero E6, CC50 vs IC50, read-out: selectivity index (antiviral effect vs cytotoxicity)): > 100; inhibition at 100 µM [2]: 9.4%; minimal effective concentration [3, 16]: 0.156 µM
9 | Nc1nc(=S)c2ncn([C@@H]3O[C@H](COP(=O)(O)OP(=O)(O)OP(=O)(O)O)[C@@H](O)[C@H]3O)c2[nH]1 [TGTP, thioguanosine triphosphate] | – | – | – | – | – | – | – | – | – | inhibition against Rdrp in vitro [9]: no inhibition
10 | Nc1nc2nc[nH]c2c(=S)[nH]1 [Thioguanine 3, Thioguanine] | 1.67 | – | – | 25.4 | – | 1.7 | no significant antiinfective effect | 1.25 | 2.5 | –
